US20240166723A1, “MECHANOCHEMICAL GENERATION OF NOVEL COLLAGEN GEL ARCHITECTURES AND SCAFFOLDS” (Yale University, priority 2022, published 2024)

Legend:
MDA-MB-231 cells [1] = test: Morphology of MDA-MB-231 cells under drug treatment in normal versus thick collagen; type: cell-based, human; details: for effect on cell morphology: normal collagen; for F-actin accumulation on the cell periphery / cell shape and protrusions: day2; for cell morphology versus control / cell shape and protrusions: normal and thick collagen; for cell morphology versus control: Y27632 30 μM, CK666 50 μM, SMIFH2 50 μM
Description: (§1) To investigate the specific molecular mechanism behind the elevated migration of MDA-MB-231 cells in thick collagen, the following drugs were tested in these gels: pan-MMP inhibitor GM6001 (20 μM), potent selective Cdc42 inhibitor ML141 (10 μM), ROCK inhibitor Y27632 (30 μM), ARP2/3 inhibitor CK666 (50 μM), formin inhibitor SMIFH2 (50 μM) and Rac1 inhibitors NSC23766 (100 μM) and EHT1864 (20 μM). First cell morphology was traced and quantified. […] The graphic illustration of each morphological index can be found in FIG. 12B.
(§2) Drugs were reconstituted and stored following manufacturers' recommendations and diluted in culture media to working concentrations. Specifically, 20 μM pan-MMPs inhibitor GM6001(Abcam, ab120845), 30 μM ROCK inhibitor Y27632 (Abcam, ab144494), 10 μM Cdc42 inhibitor ML141 (Calbiochem®217708), 50 μM formin inhibitor SMIFH2 (Abcam, ab218296), 50 μM ARP2/3 inhibitor CK666 (Abcam, ab141231), 100 μM Rac1 inhibitor NSC23766, 20 μM Rac1 inhibitor EHT1864 (Cayman 17258) were used. Fresh media mixed with specific drug were prepared right before experiment and replaced daily. In the drug assays, at least two independent experiments were performed with at least two replicates (technical duplicates) in each experiment.
In this equation, N is the total step number, n is the n-th step, x,y are the x,y coordinates respectively. For morphology analysis, z projected tilescan images were segmented and analyzed by in-house MATLAB codes. Segmentation performance was validated, with wrong segmentation manually corrected or removed. For difficult automatic segmentation data such as the Y27632 treated condition, manually tracked data were supplemented. The definitions of elongation, compactness, sphericity and shape variance were described in FIG. 4B (Liu, Scientific Reports 2022, 12, 791). A custom ImageJ script was used to derive the colocalization of the YAP/TAZ signal in the nucleus and cytoplasm. Specifically, the central plane of each cell is first extracted. DAPI and YAP/TAZ channels are then used to produce masks for cell nucleus and cell body respectively. Nucleus YAP/TAZ is calculated by averaging YAP/TAZ intensity within the nucleus mask and cytoplasmic YAP/TAZ is calculated by averaging YAP/TAZ intensity outside the nucleus mask but within cell body. To note, only YAP/TAZ of focal plane is used for average calculation. For thick collagen bundle size measurement, “Analyze Particle” function from Fiji was used.

MDA-MB-231 cells [2] = test: Migration inhibition drug assay: MDA-MB-231 cell migration in 3D collagen; type: cell-based, human; details: thick collagen, day0 and day1; GM6001 20 μM, Y27632 30 μM, ML141 10 μM, SMIFH2 50 μM, NSC23766 100 μM
Description: as §1
Apart from morphology signatures, cell migration was also tracked (FIG. 5A-C, FIG. 13A-B and FIG. 18A). […] GM6001-treated MDA-MB-231 cells in thick collagen migrated as actively as the DMSO control, both increased compared to cells in normal collagen. […] However, the interpretation of NSC23766 was confounded by the poor performance of another […]. NSC23766 binds directly to Rac1 and blocks the interaction between GEF Trio or Tiam (Gao et al., Proceedings Of The National Academy Of Sciences Of The United States Of America, 2004, 101, 7618-7623). EHT1864 binds to Rac1 but it is an allosteric inhibitor for guanine association. […] The differential preference between MDA-MB-231 cells for a stiff substrate and metastatic ovarian cancer cells (MOCC) for compliant substrate for migration (McGrail et al., Journal of Cell Science 2014, 127, 2621-2626); McGrail et al., Physical Biology 2015, 12, 026001) may be dictated by Rac1 and […], respectively.
as §2
Imaging was performed using a Leica SP8 confocal microscope. Time-lapse imaging (XYZT mode) was taken with a 20× objective (0.75 NA), with time interval set to 3 minutes or 6 minutes and z-step size set to 2 μm. Day0 time-lapse imaging was acquired between around 0hr to 12 hrs post embedding cells into gels. Day1 time-lapse imaging was acquired between around 24 hrs to 36 hrs post gel-embedment. Overview tilescan images were taken at day1, day2 or day5 respectively.
To track cell migration, XYZT data were first reduced in dimensions by conducting standard deviation projection along the z-axis. The XYT data were then processed by TrackMate in Fiji and produced cell trajectories. Trajectories were exported to MATLAB to calculate average speed and mean squared displacement. Average speed specifically refers to the mean of the absolute value of the net displacement of the cell center per hour. Mean squared displacements were computed with the following equation (Gorelik, Nature Protocols 2014, 9, 1931-1943): […]

[3] = test system: human pancreatic cancer cells PANC-1; details: aligned matrix fiber; cited from earlier work
[4] = test system: chronic lymphocytic leukemia cells; details: cited from earlier work
[5] = test system: D1 murine mesenchymal stem cells (MSCs); test: MSC migration in collagen gels, time-lapse confocal cell tracking; details: MSCs treated with inhibitors of myosin-based contractility, day 6
Description: To determine how island architecture modulates stem cell behavior, DI MSC's were seeded in gels that were adherent to polydopamine covered glass (FIG. 37). Polydopamine allows for collagen to remain anchored to surfaces for imaging and prevents total compaction of the gel during experiments (Park et al., ACS Applied Materials & Interfaces 2019, 11, 23919-23925). MSC migration in gels were then visualized. To capture cell migration in these gels, a stable LifeAct-RFP dye was transduced into MSCs and then these encapsulated cells were imaged with time-lapse confocal fluorescence microscopy. Cell tracking analysis was performed to determine migration metrics (FIG. 22A). The cells both 1 day after seeding and 6 days after seeding were imaged for 12 hour timelapses. […] After 6 days of culture, differences in migratory behavior were observed between MSCs cultured in different island gels (FIG. 22B).
D1 MSCs or D1 MSC-LifeActRFP cells were mixed with the collagen solution prior to gelation to achieve a final cell concentration of 15000 cells/ml. Cells were cultured in 50%/50% mixture of the osteogenic induction medium and adipogenic induction medium (differentiation medium). The differentiation medium contained 50 μg/ml L-ascorbic acid (MilliporeSigma), 10 mM β-glycerophosphate (MilliporeSigma), and 0.1 μM dexamethasone (MilliporeSigma) in the DMEM growth medium.
MSC time lapses were performed in 12 well glass bottom dishes which had been polydopamine coated. 12 hour time lapses were taken on Day 1 and Day 6. Automatic cell segmentation was obtained using Imaris (Oxford Instruments). Manual filtering was done to determine which cells were to be used for downstream analysis. From these segmentations, cell movement was tracked and metrics such as mean speed, sphericity, and migration track length over the timelapse were obtained. Mean speed is defined as the average of instantaneous speeds between timepoints.

OVCA429 = details: 2D conditions; cited from earlier work
SKOV3ip = details: 2D conditions; cited from earlier work
[6] = test system: PDGF-induced lamellipodia formation; details: cited from earlier work

Row | Compound | effect on cell morphology (MDA-MB-231 cells [1]) | MDA-MB-231 cell migration (MDA-MB-231 cells [2]) | cell morphology versus control (MDA-MB-231 cells [1]; NSC23766 100 μM) | cell migration track length [5] | cell shape and protrusions (MDA-MB-231 cells [1]) | other results
1 | CNC(=O)[C@H](Cc1c[nH]c2ccccc12)NC(=O)[C@@H](CC(=O)NO)CC(C)C [GM6001] | all cells are round | failed to inhibit MDA-MB-231 cell migration |  |  |  | 
2 | CCN(CC)CCCC(C)Nc1nc(C)cc(Nc2ccc3nc(C)cc(N)c3c2)n1 (centres unmarked) [NSC23766] | all cells are round | significantly reduced MDA-MB-231 cell migration | distinct morphologies compared with control | decreases in cell migration track length |  | cell movement [3]: inhibited cell movement, regardless of collagen fiber orientation; cell size (MDA-MB-231 cells [1]; NSC23766 100 μM): smaller than most other drug conditions; F-actin accumulation on the cell periphery (MDA-MB-231 cells [1]): clearly visible; proliferation [4]: proliferation arrest
3 | COc1ccc(C2CC(c3ccccc3)=NN2c2ccc(S(N)(=O)=O)cc2)cc1 (centres unmarked) [ML141] | all cells are round | did not show significant inhibition |  |  |  | cell movement [3]: moved faster in aligned matrix fiber regardless of ML141 treatment; inhibition of migration (OVCA429): does inhibit; inhibition of migration (SKOV3ip): does inhibit
4 | O=C1NC(=S)N(c2cccc(Br)c2)C(=O)/C1=C/c1ccco1 [SMIFH2] | all cells are round | significantly reduced MDA-MB-231 cell migration | distinct morphologies compared with control |  | round and lacked cell peripheral fluctuations | F-actin accumulation on the cell periphery (MDA-MB-231 cells [1]): lacked F-actin accumulation on the cell periphery
5 | C[C@@H](N)[C@H]1CC[C@H](C(=O)Nc2ccncc2)CC1 [Y27632] |  | significantly reduced MDA-MB-231 cell migration | distinct morphologies compared with control | decreases in cell migration track length | extremely long cell protrusions | 
6 | O=S(=O)(c1cccc2c(I)cccc12)N1CCCNCC1 [ML-7] |  |  |  | decreases in cell migration track length |  | 
7 | O=c1cc(CN2CCOCC2)occ1OCCCCCSc1ccnc2cc(C(F)(F)F)ccc12 [EHT1864] | all cells are round |  |  |  |  | PDGF-induced lamellipodia formation [6]: can inhibit PDGF-induced lamellipodia formation
8 | Cc1[nH]c2ccccc2c1CCNC(=O)c1ccccc1F [CK666] |  |  | distinct morphologies compared with control |  | elongated and stretched | 
